Reference: PMC9271048, “Probing strigolactone perception mechanisms with rationally designed small-molecule agonists stimulating germination of root parasitic weeds” (Nature Communications, 2022)

Columns and labels:
ShHTL7 M219A = ShHTL7 M219A (Striga hermonthica, UniProt A0A0M3PNA2, M219A); test: YLG competitive inhibition, ShHTL7 mutant M219A; type: biochemical
From the text: (§1) To clarify the dynamics of how the catalytic triad affects hydrolysis by ShHTL7, we performed MD simulations to study the differences between (R)-4a and (S)-4a (Supplementary Fig. 21). […] To further characterize our computational models, we performed mutation studies of the key residues in the active pockets that may have interactions with our molecules. Indeed, a number of the mutations of specific residues altered the IC50 values, supporting our simulated models (Supplementary Fig. 20b).
(§2) The excitation and emission wavelengths of YLG are 480 and 520 nm, respectively. We used a fluorescence spectrophotometer (CARY Eclipse) to detect the fluorescence intensity change of YLG during the enzymatic hydrolysis assay process. All the testing compounds and YLG were dissolved in DMSO and prepared as stock solutions just before use. […] The changes of fluorescence at 520 nm of each well were recorded every 1 min for 30 min. Using the reaction mixture without adding enzyme and tested compounds as the background control. After subtracting the background hydrolysis, a linear fluorescence increase in 8 min was used for further inspection. The IC50 values were determined via fitting relative inhibition percentages with the varying concentrations of compounds in Microsoft Excel.
(§3) Supplementary Fig. 20. […]

ShHTL7S95A = test: Hydrolysis reaction analysis with ShHTL7 S95A mutant; type: biochemical, Striga hermonthica; details: Supplementary Figs. 20a, 24a
Protocol: (§4) Compounds 4a, (R)- and (S)-4a, 4g-i, and rac-GR24 were dissolved in DMSO and prepared as stock solution ([…]) just before use. A 200 μL of the reaction solution consisting of PBS buffer (pH 7.3), 10 μM samples, and 10 μg recombinant ShHTL7 or its mutants was incubated at 30 °C for 30 min; with the reaction solution (200 μL) containing PBS buffer (pH 7.3) and 10 μM samples as the blank control[40],[52]. Subsequently, the reaction was terminated by adding 200 μL of methanol, and then the reaction mixture was shaken for 10 s and centrifuged at 5310 × g for 60 s. The supernatant was filtered and the remaining amount of samples was analyzed by HPLC. The relative percentages of hydrolysis were obtained by using the amount of compounds in blank control as reference.
(§5) Supplementary Fig. 20. Effect of key amino acid residues on the hydrolysis of ShHTL7 and binding affinity. a, Relative percentage of hydrolysis of compound (S)-4a by ShHTL7S95A, ShHTL7H246A, and ShHTL7. The error bar indicates SD (n = 3 biologically independent experiments). b, Competitive mutants of ShHTL7 inhibitory activity in YLG assay. Data are the means ± SD (n = 3 biologically independent experiments).
(1 picture or pasted object on this page, not shown here) […]

ShHTL7 T142K = ShHTL7 T142K (Striga hermonthica, UniProt A0A0M3PNA2, T142K); test: YLG competitive inhibition, ShHTL7 mutant T142K; type: biochemical
Sequence of ShHTL7 T142K (A0A0M3PNA2 whole entry T142K): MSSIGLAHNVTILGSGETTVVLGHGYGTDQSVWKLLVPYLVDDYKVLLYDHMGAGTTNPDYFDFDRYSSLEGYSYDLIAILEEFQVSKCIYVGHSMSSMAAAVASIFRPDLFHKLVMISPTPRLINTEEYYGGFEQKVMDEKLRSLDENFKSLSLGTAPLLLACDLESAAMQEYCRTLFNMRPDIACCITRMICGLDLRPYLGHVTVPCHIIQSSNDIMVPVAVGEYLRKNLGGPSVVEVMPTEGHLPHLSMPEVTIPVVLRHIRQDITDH
From the text: as §1, §2, §3

ShHTL7H246A = test: Hydrolysis reaction analysis with ShHTL7 H246A mutant; type: biochemical, Striga hermonthica; details: Supplementary Fig. 20a
Protocol: as §4, §5
(1 picture or pasted object on this page, not shown here)

ShHTL7 T190G = ShHTL7 T190G (Striga hermonthica, UniProt A0A0M3PNA2, T190G); test: YLG competitive inhibition, ShHTL7 mutant T190G; type: biochemical
Sequence of ShHTL7 T190G (A0A0M3PNA2 whole entry T190G): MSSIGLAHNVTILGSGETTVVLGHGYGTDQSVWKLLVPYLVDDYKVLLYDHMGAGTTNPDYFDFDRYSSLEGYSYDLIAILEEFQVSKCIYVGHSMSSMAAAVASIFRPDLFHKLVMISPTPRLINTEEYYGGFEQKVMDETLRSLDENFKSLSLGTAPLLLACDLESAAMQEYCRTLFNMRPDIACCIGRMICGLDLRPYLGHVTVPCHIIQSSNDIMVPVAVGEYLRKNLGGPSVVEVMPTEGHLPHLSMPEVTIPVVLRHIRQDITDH
From the text: as §1, §2, §3

ShHTL7 T157A = ShHTL7 T157A (Striga hermonthica, UniProt A0A0M3PNA2, T157A); test: YLG competitive inhibition, ShHTL7 mutant T157A; type: biochemical
Sequence of ShHTL7 T157A (A0A0M3PNA2 whole entry T157A): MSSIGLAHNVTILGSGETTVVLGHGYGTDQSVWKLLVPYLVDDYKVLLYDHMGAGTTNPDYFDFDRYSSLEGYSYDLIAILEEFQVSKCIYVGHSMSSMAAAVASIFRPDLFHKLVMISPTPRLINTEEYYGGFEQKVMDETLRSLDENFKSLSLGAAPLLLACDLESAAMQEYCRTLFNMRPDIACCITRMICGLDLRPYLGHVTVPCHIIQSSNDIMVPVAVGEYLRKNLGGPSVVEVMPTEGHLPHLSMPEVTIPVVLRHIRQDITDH
From the text: as §1, §2, §3

ShHTL7 L161A = ShHTL7 L161A (Striga hermonthica, UniProt A0A0M3PNA2, L161A); test: YLG competitive inhibition, ShHTL7 mutant L161A; type: biochemical
Sequence of ShHTL7 L161A (A0A0M3PNA2 whole entry L161A): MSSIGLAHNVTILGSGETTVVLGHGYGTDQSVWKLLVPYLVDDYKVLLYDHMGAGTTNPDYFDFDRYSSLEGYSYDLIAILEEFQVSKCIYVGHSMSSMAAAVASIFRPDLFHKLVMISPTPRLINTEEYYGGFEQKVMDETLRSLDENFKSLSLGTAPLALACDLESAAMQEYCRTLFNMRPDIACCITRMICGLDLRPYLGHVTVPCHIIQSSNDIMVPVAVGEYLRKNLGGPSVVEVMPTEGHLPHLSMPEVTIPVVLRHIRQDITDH
From the text: as §1, §2, §3

ShHTL7S95C = test: Hydrolysis reaction analysis with ShHTL7 S95C mutant; type: biochemical, Striga hermonthica; details: Supplementary Fig. 24a
Protocol: as §4
Supplementary Fig. 24. a, Relative percentage of hydrolysis of compound 4g by ShHTL7S95A, ShHTL7S95C, and ShHTL7. b, LC-MS analysis of the full-length His-tagged ShHTL7 in native condition. c, LC-MS analysis of the full-length His-tagged ShHTL7S95A in native condition, the mass of 34699 Da (reduction of […] compared with that of ShHTL7) is the peak of ShHTL7S95A. d, LC-MS analysis of full-length His-tagged ShHTL7S95C in native condition, the mass increment of 18 Da […]

ShHTL7 = ShHTL7 (Striga hermonthica, UniProt A0A0M3PNA2); parameters: method as in PMID 30021834; details: microscale thermophoresis measurements; cited from earlier work
Sequence of ShHTL7 (A0A0M3PNA2 entry or part of it): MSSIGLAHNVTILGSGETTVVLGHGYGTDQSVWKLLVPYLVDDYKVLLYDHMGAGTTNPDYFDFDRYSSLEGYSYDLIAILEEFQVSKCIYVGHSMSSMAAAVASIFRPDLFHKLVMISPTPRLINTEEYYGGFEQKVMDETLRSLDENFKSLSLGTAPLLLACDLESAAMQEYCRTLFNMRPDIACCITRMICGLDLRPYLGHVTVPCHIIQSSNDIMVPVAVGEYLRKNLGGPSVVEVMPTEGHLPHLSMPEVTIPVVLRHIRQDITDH

Sequence of ShHTL7 M219A (A0A0M3PNA2 whole entry M219A): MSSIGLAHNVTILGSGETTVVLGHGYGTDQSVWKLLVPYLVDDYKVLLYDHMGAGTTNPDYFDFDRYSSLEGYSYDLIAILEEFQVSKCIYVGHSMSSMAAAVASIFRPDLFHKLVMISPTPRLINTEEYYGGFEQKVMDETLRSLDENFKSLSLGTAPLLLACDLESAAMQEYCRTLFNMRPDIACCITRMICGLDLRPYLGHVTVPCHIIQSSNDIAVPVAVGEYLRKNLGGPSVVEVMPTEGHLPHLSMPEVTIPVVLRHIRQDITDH

SMILES	IC50 (ShHTL7 M219A) [nM]	relative percentage of hydrolysis by ShHTL7S95A, source data average (ShHTL7S95A) [%]	IC50 (ShHTL7 T142K) [nM]	relative percentage of hydrolysis by ShHTL7H246A, source data average (ShHTL7H246A) [%]	IC50 (ShHTL7 T190G) [nM]	IC50 (ShHTL7 T157A) [nM]	IC50 (ShHTL7 L161A) [nM]	relative percentage of hydrolysis by ShHTL7S95C, source data average (ShHTL7S95C) [%]	Kd (ShHTL7) [nM]
CC1=C[C@H](OC(=O)N2CCN(C(=O)COc3ccc(Br)cc3C)CC2)OC1=O [(S)-4a]	6530	1.485	203	0.5315	575	170	155	–	–
CC1=CC(OC(=O)N2CCN(C(=O)COc3ccc(Br)cc3C)CC2)CC1=O (stereo not drawn) [4g]	–	3.871	–	–	–	–	–	4.848	–
CC1=C[C@H](O/C=C2/C(=O)O[C@@H]3c4ccccc4C[C@H]23)OC1=O (racemic) [rac-GR24, reference compound]	–	–	–	–	–	–	–	–	920 ± 10
CC1=C[C@@H](OC(=O)N2CCN(C(=O)COc3ccc(Br)cc3C)CC2)OC1=O [(R)-4a]	> 100000	–	4130	–	26400	2610	100000	–	–
